Reference: ChEMBL document CHEMBL3120070, “Antimycobacterial evaluation of novel hybrid arylidene thiazolidine-2,4-diones” (Bioorg Med Chem Lett, 2014)
Converted amounts (≈) assume the structure as drawn.

Tests used:
Vero = assay: Cytotoxicity against African green monkey Vero cells assessed as cell viability up to 62.5 ug/mL after 72 hrs by MTT assay; format: cell-based; conditions: chlorocebus sabaeus
[1] = system: Mycobacterium tuberculosis; assay: Antimycobacterial activity against Mycobacterium tuberculosis H37Rv assessed as growth inhibition by Alamar Blue staining-based broth microdilution assay; format: functional, organism-based
[2] = system: Mycobacterium tuberculosis; assay: Potency index, ratio of pyrimethamine MIC90 to compound MIC90 for Mycobacterium tuberculosis H37Rv; format: functional
[3] = system: Mycobacterium tuberculosis; assay: Potency index, ratio of pyrimethamine EC90 to compound EC90 for Mycobacterium tuberculosis H37Rv; format: functional
[4] = system: Mycobacterium tuberculosis; assay: Potency index, ratio of cycloserine EC50 to compound EC50 for Mycobacterium tuberculosis H37Rv; format: functional
[5] = system: Mycobacterium tuberculosis; assay: Potency index, ratio of pyrimethamine EC50 to compound EC50 for Mycobacterium tuberculosis H37Rv; format: functional

SMILES | Activity (Vero) | EC50 [1] [µM] | EC90 [1] [µM] | MIC90 [1] [µM] | Ratio [2] | Ratio [3] | Ratio EC50 [4] | Ratio EC50 [5]
COc1cc(/C=C2\SC(=O)N(C(C(=O)C3CC3)c3ccccc3F)C2=O)cc(OC)c1OC (stereo unspecified) | Non-toxic | 19 | 53 | 50 (≈ 23.6 µg/mL) |  |  |  | 
O=C(C1CC1)C(c1ccccc1F)N1C(=O)S/C(=C\c2ccc(O)cc2)C1=O (stereo unspecified) | Non-toxic | 10 | 19 | 25 (≈ 9.94 µg/mL) | 4 |  |  | 
O=C(C1CC1)C(c1ccccc1F)N1C(=O)S/C(=C\c2ccc(F)cc2)C1=O (stereo unspecified) | Non-toxic | 11 | 25 | 25 (≈ 9.99 µg/mL) | 4 |  |  | 
O=C(C1CC1)C(c1ccccc1F)N1C(=O)S/C(=C\c2cc(Br)cs2)C1=O (stereo unspecified) | Non-toxic | 18 | 27 | 50 (≈ 23.3 µg/mL) |  |  |  | 
O=C(C1CC1)C(c1ccccc1F)N1C(=O)S/C(=C\c2ccc(Cl)cc2)C1=O (stereo unspecified) | Non-toxic | 25 | 55 | 50 (≈ 20.8 µg/mL) |  |  |  | 
N[C@@H]1CONC1=O [CYCLOSERINE] |  | 12.5 | 13.5 | 25 (≈ 2.55 µg/mL) |  |  |  | 
COc1ccc(/C=C2\SC(=O)N(C(C(=O)C3CC3)c3ccccc3F)C2=O)cc1 (stereo unspecified) | Non-toxic | 11 | 27 | 25 (≈ 10.3 µg/mL) | 4 |  |  | 
O=C(C1CC1)C(c1ccccc1F)N1C(=O)S/C(=C\c2c[nH]c3ccccc23)C1=O (stereo unspecified) | Non-toxic | 18 | 27 | 25 (≈ 10.5 µg/mL) | 4 |  |  | 
O=C(C1CC1)C(c1ccccc1F)N1C(=O)S/C(=C\c2ccc(O)c(O)c2)C1=O (stereo unspecified) | Non-toxic | 21 | 55 | 25 (≈ 10.3 µg/mL) | 4 |  |  | 
O=C(C1CC1)C(c1ccccc1F)N1C(=O)S/C(=C\c2ccccc2)C1=O (stereo unspecified) | Non-toxic | 17 | 36 | 50 (≈ 19.1 µg/mL) |  |  |  | 
COc1ccc(/C=C2\SC(=O)N(C(C(=O)C3CC3)c3ccccc3F)C2=O)cc1OC (stereo unspecified) | Non-toxic | 8 | 16 | 25 (≈ 11 µg/mL) | 4 |  |  | 
CSc1ccc(/C=C2\SC(=O)N(C(C(=O)C3CC3)c3ccccc3F)C2=O)cc1 (stereo unspecified) | Non-toxic | 16 | 25 | 25 (≈ 10.7 µg/mL) | 4 |  |  | 
CCc1nc(N)nc(N)c1-c1ccc(Cl)cc1 [PYRIMETHAMINE] |  | 37.4 | 75 | 100 (≈ 24.9 µg/mL) |  |  |  | 
COc1cc(Br)c(/C=C2\SC(=O)N(C(C(=O)C3CC3)c3ccccc3F)C2=O)cc1O (stereo unspecified) | Non-toxic | 15 | 54 | 50 (≈ 25.3 µg/mL) |  |  |  | 
NNC(=O)c1ccncc1 [ISONIAZID] |  | 0.18 | 0.29 | 0.31 (≈ 0.0425 µg/mL) |  |  |  | 
CC[C@@H](CO)NCCN[C@@H](CC)CO [ETHAMBUTOL] |  | < 1.56 | 32.8 | 12.5 (≈ 2.55 µg/mL) |  |  |  | 
O=C(C1CC1)C(c1ccccc1F)N1C(=O)S/C(=C\c2ccc(N3CCCCC3)cc2)C1=O (stereo unspecified) | Non-toxic | 24 | 36 | 25 (≈ 11.6 µg/mL) | 4 |  |  | 
O=C(C1CC1)C(c1ccccc1F)N1C(=O)S/C(=C\c2cccs2)C1=O (stereo unspecified) | Non-toxic | 6 | 11 | 25 (≈ 9.69 µg/mL) | 4 | 6.26 | 1.95 | 5.85
O=C(C1CC1)C(c1ccccc1F)N1C(=O)S/C(=C\c2ccc3c(c2)OCO3)C1=O (stereo unspecified) | Non-toxic | 9 | 21 | 25 (≈ 10.6 µg/mL) | 4 |  |  | 
COc1cc(OC)c(/C=C2\SC(=O)N(C(C(=O)C3CC3)c3ccccc3F)C2=O)c(OC)c1 (stereo unspecified) | Non-toxic | 13 | 27 | 50 (≈ 23.6 µg/mL) |  |  |  | 
O=C(C1CC1)C(c1ccccc1F)N1C(=O)CSC1=O (stereo unspecified) | Non-toxic | 6 | 26 | 25 (≈ 7.33 µg/mL) | 4 |  |  | 
NCC[C@H](O)C(=O)N[C@@H]1C[C@H](N)[C@@H](O[C@H]2O[C@H](CN)[C@@H](O)[C@H](O)[C@H]2O)[C@H](O)[C@H]1O[C@H]1O[C@H](CO)[C@@H](O)[C@H](N)[C@H]1O [AMIKACIN] |  |  | 0.08 | 0.16 (≈ 0.0937 µg/mL) |  |  |  | 
O=C(C1CC1)C(c1ccccc1F)N1C(=O)S/C(=C\c2ccc3ccccc3n2)C1=O (stereo unspecified) | Non-toxic | 14 | 68 | 25 (≈ 10.8 µg/mL) | 4 |  |  | 
